The values below come from ChEMBL document CHEMBL1201862, “PubChem BioAssay data set” (2004).

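Interpolation was linear, between the two tested concentrations surrounding the appropriate level; five concentrations were tested over 48 hours in 96-well plates. Here, GI50 denotes the concentration required for 50% inhibition of growth.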 Calls of active or inactive are those of the source. Cut-off read from the data, not from the text of the source: active = GI50 up to about 1.1 µM and inactive = higher.

Among the test systems are NCI-H522; OVCAR-5; A549; SR; TK-10; IGROV-1; HT-29; SF-295; OVCAR-8; DMS-114; UACC-257; RPMI-8226; NCI-H23; SF-539; HL-60; NCI-H226; HCT-116.
Holding throughout (experiment): inhibition of tumour cell growth, NCI panel, 48 h

`CCOC(=O)c1oc2c(OC)ccc3c2c1CCC3`: the GI50 with NCI-H522, in the test with OVCAR-5, with A549, in the test on SR, in the test with TK-10 and with IGROV-1 was > 100 µM (inactive) each time. Besides, the GI50 in the test with HT-29 is 37.7 µM (inactive); in the test on SF-295 it was > 100 µM (inactive); with OVCAR-8 it was > 100 µM (inactive); in the test on DMS-114, > 100 µM (inactive); in the test with UACC-257, 0.404 µM (active); in the test on RPMI-8226 it was > 100 µM (inactive). For the same molecule, the GI50 was 96.4 µM (inactive) in the test with NCI-H23, > 100 µM (inactive) with SF-539 and > 100 µM (inactive) in the test on HL-60.
On to `COC(=O)/C(=C/c1ccc(OC)cc1)C(C(=O)O)=C(C)C`, for which the GI50 in the test on NCI-H522, in the test on OVCAR-5, in the test with A549, with NCI-H226, in the test on HCT-116 and with SR was > 100 µM (inactive) each time. Moreover, the GI50 in the test with TK-10, in the test on IGROV-1, in the test with HT-29, in the test on SF-295, in the test with OVCAR-8 and with DMS-114 was > 100 µM (inactive) throughout. Besides, the GI50 in the test on UACC-257, in the test with RPMI-8226, in the test on NCI-H23, in the test on SF-539 and in the test on HL-60 was > 100 µM (inactive) each time.
With `CCOC(=O)c1cccnc1C(OC(C)=O)OC(C)=O`, the GI50 in the test with NCI-H522, with OVCAR-5, in the test with A549, in the test with NCI-H226, in the test on HCT-116 and in the test on SR was > 100 µM (inactive) in each case. The GI50 with TK-10 is > 100 µM (inactive); with IGROV-1, > 100 µM (inactive); in the test with HT-29 it was > 100 µM (inactive); with SF-295 it was 83.4 µM (inactive); with OVCAR-8 it was > 100 µM (inactive); in the test on DMS-114, > 100 µM (inactive). For the same molecule, the GI50 in the test with UACC-257 was > 100 µM (inactive); with NCI-H23, > 100 µM (inactive); in the test with SF-539 it was > 100 µM (inactive); in the test with HL-60 it was 49.9 µM (inactive).
In the case of `COC(=O)CSc1nnc(-c2ccccc2)[nH]1`, the GI50 in the test with NCI-H522 was > 100 µM (inactive); with OVCAR-5, > 100 µM (inactive); with A549, > 100 µM (inactive); in the test on NCI-H226 it was > 100 µM (inactive); in the test with HCT-116, > 100 µM (inactive); in the test on SR, 3.7 µM (inactive). The GI50 with TK-10, with IGROV-1, with HT-29, in the test with SF-295, in the test with OVCAR-8 and in the test on DMS-114 was > 100 µM (inactive) in each case. Also, the GI50 in the test on UACC-257, in the test on RPMI-8226, in the test with NCI-H23, with SF-539 and in the test on HL-60 was > 100 µM (inactive) throughout.
As to `COc1ccc(C2S/C(=C\c3ccccc3O)C(=O)N2NC(=O)Cc2ccccc2)cc1` (centres undefined), the GI50 with NCI-H522 was > 100 µM (inactive); with OVCAR-5 it was > 100 µM (inactive); in the test with A549, 98.6 µM (inactive); in the test on NCI-H226, > 100 µM (inactive); in the test with HCT-116, 38.2 µM (inactive); in the test with SR it was 37.4 µM (inactive). The GI50 with TK-10 was > 100 µM (inactive); with IGROV-1, > 100 µM (inactive); with HT-29, > 100 µM (inactive); in the test on SF-295 it was > 100 µM (inactive); with OVCAR-8, 83.2 µM (inactive); in the test with DMS-114 it was 74.5 µM (inactive). For the same molecule, the GI50 was > 100 µM (inactive) with UACC-257; 48.5 µM (inactive) with RPMI-8226; > 100 µM (inactive) in the test on NCI-H23; > 100 µM (inactive) in the test on SF-539; 60.5 µM (inactive) with HL-60.
As to `NCCn1ccc(NC(c2ccccc2)(c2ccccc2)c2ccccc2)nc1=O`, the GI50 in the test with NCI-H522 is 18.1 µM (inactive); in the test with OVCAR-5 it was > 100 µM (inactive); with A549, 25.2 µM (inactive); in the test with NCI-H226 it was 15.8 µM (inactive); in the test with HCT-116, 18.2 µM (inactive); in the test with SR, 19.4 µM (inactive). The GI50 was 30 µM (inactive) in the test on TK-10; 40.7 µM (inactive) in the test with IGROV-1; 16.9 µM (inactive) in the test with HT-29; 19.8 µM (inactive) in the test with SF-295; 39.8 µM (inactive) in the test with OVCAR-8; 18.6 µM (inactive) in the test on DMS-114. Further, the GI50 in the test with UACC-257 is 19.5 µM (inactive); in the test on RPMI-8226 it was 18.6 µM (inactive); in the test on NCI-H23, > 10 µM (inactive); in the test with SF-539, 17 µM (inactive); in the test with HL-60, 17.7 µM (inactive).
Take `COc1ccc(C2NC3=C(CCCC3)N2)cc1`: the GI50 with NCI-H522 was 40.2 µM (inactive); in the test with OVCAR-5, 80.2 µM (inactive); in the test with A549, > 100 µM (inactive); with NCI-H226, > 100 µM (inactive); in the test on HCT-116, 64.9 µM (inactive); in the test with SR, 44.8 µM (inactive). The GI50 with TK-10 is > 100 µM (inactive); in the test with IGROV-1 it was > 100 µM (inactive); with HT-29, 42.9 µM (inactive); in the test on SF-295 it was 78 µM (inactive); in the test with OVCAR-8, > 100 µM (inactive); in the test with DMS-114 it was 75.5 µM (inactive). In addition, the GI50 in the test on UACC-257 is > 100 µM (inactive); with RPMI-8226, > 100 µM (inactive); with NCI-H23, 67 µM (inactive); in the test on SF-539, 87.5 µM (inactive); in the test with HL-60 it was 29 µM (inactive).
In the case of `CCOC(=O)C1S/C(=N\c2ccccc2)N=C1C` (centres undefined), the GI50 in the test with NCI-H522 is 44.7 µM (inactive); in the test with OVCAR-5 it was 96.8 µM (inactive); in the test on A549 it was 55.5 µM (inactive); in the test with NCI-H226, 74 µM (inactive); with HCT-116, > 100 µM (inactive); with SR, 45.3 µM (inactive). Further, the GI50 in the test with TK-10 was > 100 µM (inactive); with IGROV-1 it was > 100 µM (inactive); in the test on HT-29, 30.3 µM (inactive); in the test with SF-295, > 100 µM (inactive); in the test on OVCAR-8, > 100 µM (inactive); with DMS-114, 59 µM (inactive). The GI50 was > 100 µM (inactive) in the test with UACC-257; 51.2 µM (inactive) with RPMI-8226; 67.3 µM (inactive) with NCI-H23; 73.5 µM (inactive) with SF-539; 59.6 µM (inactive) in the test with HL-60.
With `CCCCCCCCCCC(O)CCCCCCC(=O)O` (centres undefined), the GI50 is 24.5 µM (inactive) in the test on NCI-H522; 29.4 µM (inactive) in the test on OVCAR-5; 18.2 µM (inactive) in the test on A549; 52 µM (inactive) in the test with NCI-H226; 17.2 µM (inactive) in the test on HCT-116; 15.1 µM (inactive) in the test on SR. The GI50 in the test with TK-10 is 65.9 µM (inactive); in the test on IGROV-1 it was 18.2 µM (inactive); in the test with HT-29, 19.9 µM (inactive); with SF-295, 27.1 µM (inactive); with OVCAR-8, 16.2 µM (inactive); in the test on DMS-114, 23.1 µM (inactive). Besides, the GI50 was 69.3 µM (inactive) with UACC-257; 10.2 µM (inactive) in the test on RPMI-8226; 35 µM (inactive) in the test with NCI-H23; 24.3 µM (inactive) with SF-539; 8.05 µM (inactive) with HL-60.
Regarding `COC(=O)/C(=N/Nc1cccc(Cl)c1)C(C(=O)C(=O)Nc1cccc(Cl)c1C)c1nc2ccccc2nc1C` (centres undefined), the GI50 was > 100 µM (inactive) in the test on NCI-H522; 24.4 µM (inactive) in the test on OVCAR-5; 63.7 µM (inactive) in the test with A549; 62.5 µM (inactive) with HCT-116; 90.4 µM (inactive) in the test on SR; > 100 µM (inactive) in the test with TK-10. The GI50 in the test on IGROV-1 was 41.7 µM (inactive); with HT-29 it was > 100 µM (inactive); with SF-295, > 100 µM (inactive); in the test with OVCAR-8, > 100 µM (inactive); with DMS-114, 45 µM (inactive); in the test with UACC-257, > 100 µM (inactive). Moreover, the GI50 was 88.5 µM (inactive) with RPMI-8226, > 100 µM (inactive) in the test on NCI-H23, 59.2 µM (inactive) in the test on SF-539 and 29.6 µM (inactive) in the test with HL-60.
For `NC(C(=O)O)c1ccc(C(=O)O)cc1` (centres undefined), the GI50 with NCI-H522, with OVCAR-5, with A549, in the test with NCI-H226, in the test with SR and with TK-10 was > 100 µM (inactive) each time. For the same molecule, the GI50 in the test on IGROV-1, in the test with HT-29, in the test with SF-295, in the test with OVCAR-8, in the test with DMS-114 and in the test on UACC-257 was > 100 µM (inactive) in each case. For the same molecule, the GI50 in the test on RPMI-8226, with NCI-H23, in the test on SF-539 and with HL-60 was > 100 µM (inactive) in each case.
Consider `COC(=O)C(CC(=O)Nc1ccc(Cl)c(Cl)c1)C(=O)C(=O)NC1C2CC3CC(C2)CC1C3` (centres undefined), for which the GI50 in the test with NCI-H522, in the test with OVCAR-5, in the test with A549, in the test on NCI-H226, in the test on HCT-116 and in the test with SR was > 100 µM (inactive) in each case. Further, the GI50 in the test on TK-10, in the test with IGROV-1, in the test on HT-29, in the test with SF-295, in the test with OVCAR-8 and in the test on DMS-114 was > 100 µM (inactive) each time. For the same molecule, the GI50 with UACC-257, in the test on RPMI-8226, in the test with NCI-H23, in the test on SF-539 and in the test with HL-60 was > 100 µM (inactive) in each case.
